Where two headings read alike, the source gives them in different places.
What was measured:
[1] = tested on: C. elegans wild-type (N2) and nhr-8(ok186) mutant animals; details: for Sensitivity of nhr-8(ok186) mutant animals compared with wild-type (N2), L1 assay: 1% DMSO, 20° C., ~72 hours, FIGS. 13 and 14
Description: Assays for nematode sensitivity to toxic compounds known to induce mammalian cytochrome P450 expression (β-naphthaflavone, primaquine, and atrazine, available from Sigma) were performed in polystyrene 24-well tissue culture plates (Costar, Corning, N.Y.). Each culture well was filled with 0.8 ml of NGM agar (Lewis, J. A. and J. T. Fleming, Basic culture methods, in Caenorhabditis elegans: Modern Biological Analysis of an Organism, H. F. Epstein and D. C. Shakes, Editors. 1995, Academic Press: San Diego, Calif. pp. 3-29) containing compound additions as indicated. Compound solutions and dilutions were prepared in DMSO, and the appropriate amounts of compound were added to aliquots of molten NGM agar (equilibrated in a 55° C. water bath) prior to pouring the wells. For each compound, assays were performed using a range of final compound concentrations in the agar (0, 2, 5, 10, 20 and 30 ug/ml β-naphthoflavone; 0, 25, 50, 100, 250, and 77 ug/ml atrazine; 0, 20, 40, 60, 80 and 100 ug/ml primaquine). The final concentration of DMSO in the agar was 1% in every case, and controls of no addition and of 1% DMSO were also included in every assay series. Once the agar was solidified, each well was seeded with a lawn of E. coli OP50-1 prior to the addition of nematodes. All assays were performed in duplicate. Two different assay strategies were used to assess compound effects on nematode growth and viability: L1 assay: Synchrono5us nematode cultures of the wild-type strain N2 and of the mutant nhr-8(ok186) were obtained by isolating L1 larvae as described Lewis, J. A. and J. T. Fleming, Basic culture methods, in Caenorhabditis elegans: Modern Biological Analysis of an Organism, H. F. Epstein and D. C. […] The actual number of worms in each well was determined by direct count. […] After incubation at 20° C. for ˜72 hours, larval growth was assessed in each well by counting the number of gravid adults, L4 larvae/non-gravid adults, and larvae younger than the L4 stage. […] This difference was recorded as a “missing” class.

[2] = tested on: C. elegans CYP genes (CYP35A1-A5, CYP35B1-B3, CYP35C, CYP31A1, CYP31A3); experiment: Induction of cytochrome P450 gene expression, semi-quantitative RT-PCR; type: in vivo, Caenorhabditis elegans; details: 5 ug/ml beta-naphthaflavone plus 1% DMSO or 1 mM chloroquine; ~72 hours at 20° C.; observed in both N2 and nhr-8(ok186) animals; FIG. 15
Description: The plates were incubated at 20° C. for ˜72 hours to allow for nematode growth and exposure to compound. Nematodes were then harvested, washed 3× in M9 to remove residual bacteria, and flash frozen in liquid nitrogen. Total RNA was isolated from the frozen nematodes as described (Sluder, A., S. W. Mathews, D. Hough, V. P. Yin, and C. V. Maina, The nuclear receptor superfamily has undergone extensive proliferation and diversification in nematodes. Genome Research, 1999. 9: 103-120).
The levels of cytochrome P450 mRNA in each RNA prep were assayed by semi-quantitative RT-PCR, using primers for specific cytochrome P450 gene sequences presented in Tables 5 and 6, in which nucleotides at degenerate positions are indicated using (N/N). […] Prior to performing PCR amplification to assess gene expression levels, the number of amplification cycles to be employed with each primer pair was selected to ensure that the amplification reactions remained within the linear reaction range [cycle number was selected as described in Johnstone, I. L. and J. D. Barry, Temporal reiteration of a precise gene expression pattern during nematode development Embo J. 1996, 15: 3633-3639, except that reaction products were analyzed by ethidium bromide-staining rather than Southern blotting]. […]

[3] = tested on: C. elegans wild type (N2), nhr-8(ok186), pgp-3(pk18) and nhr-8(ok186); pgp-3(pk18) worms
Description: Assays for nematode killing by selected toxins were performed in polystyrene 12-well tissue culture plates from Costar (Corning, N.Y.). Concentrated stock solutions of toxins were purified by filtration through 0.2 μm nitrocellulose filters (Corning, Corning, N.Y.). Because the toxin concentrations were not measured following filtration, the molarities of the solutions are estimates. Concentrated toxin stock solutions were serially diluted with S media (0.1 M NaCl, 0.05M potassium phosphate, 5 μg/ml cholesterol, 0.05 mM disodium EDTA, 0.025 mM FeSO4.7H2O, 0.001 mM MnCl2.4H2O, 0.001 mM ZnSO4.7H2O, 0.0001 mM CuSO4.5H2O, […]) to produce appropriate working solutions. To provide a bacterial food source, a saturated culture of E. coli OP50 [43] grown in LB was pelleted and resuspended in each toxin solution. For each 50 ml of toxin solution, 25 ml of the bacterial culture was pelleted for resuspension. Serial dilutions were made in bulk and aliquoted into individual wells (1 ml per well).
To assess killing by the toxins, single hermaphrodites were allowed to lay eggs in individual wells for a 12 hour interval, then transferred to fresh wells. Hatched larvae in each well were counted 12 hours after removal of the hermaphrodite and observed over the course of seven days for development and survival to adulthood [wild type animals complete postembryonic development within 3 days, 29].

[4] = tested on: C. elegans nhr-8(RNAi) worms; experiment: Colchicine toxicity assay after RNA-mediated interference of nhr-8; type: in vivo, Caenorhabditis elegans; details: nhr-8(RNAi) vs nhr-8(ok186); percentage surviving to the adult stage; FIG. 7
Description: Single RNA strands were produced with the Ambion MEGAscript in vitro transcription kit, using as template a PCR amplicon (produced from cm14e12 using primers EL-15 and T7) that lacked sequences encoding the NHR-8 DNA binding domain. To produce dsRNA, equal amounts of sense and antisense transcription reactions and 3× injection buffer (20 mM KPO4 pH 7.5, 3 mM KCitrate pH 7.5, 2% PEG6000) were combined and incubated on a thermal cycler for strand annealing (95° C., 20 sec.; reduced by 2° C. per 10 sec. cycle for 11 cycles). Both gonad arms of young adult hermaphrodites were injected with the dsRNA [25]. Following a 12 hour purge period to remove embryos unlikely to have received a full dose of dsRNA, the injected hermaphrodites were used in the colchicine toxicity assay described above.

Structure (SMILES): O=c1cc(-c2ccccc2)oc2ccc3ccccc3c12 [β-naphthoflavone]
- Difference in sensitivity of wild-type (N2) and nhr-8(ok186) mutant animals ([1]; preliminary experiments, data not shown): did not reveal any detectable differences
- CYP genes whose expression was induced [2]: CYP35A3 and CYP35A4

Structure (SMILES): COc1cc2c(c(OC)c1OC)-c1ccc(OC)c(=O)cc1[C@@H](NC(C)=O)CC2 [colchicine]
- Toxin sensitivity of nhr-8(ok186); pgp-3(pk18) double mutant animals compared with animals with only a single disrupted gene ([3]; double mutant vs single mutants, FIG. 6): more sensitive
- Toxin sensitivity of nhr-8(ok186) homozygotes compared with wild type animals (percentage surviving to the adult stage) ([3]; in vivo): more sensitive
- Toxin sensitivity of nhr-8(ok186) animals compared with pgp-3 putative null mutants ([3]; nhr-8(ok186) vs pgp-3(pk18), FIG. 6): as sensitive
- Colchicine sensitivity after disruption of nhr-8 function by RNA mediated interference [4]: phenocopies the colchicine sensitivity of the nhr-8(ok186) mutants

Structure (SMILES): COc1cc(NC(C)CCCN)c2ncccc2c1 (centres unmarked) [primaquine]
- Sensitivity of nhr-8(ok186) mutant animals compared with wild-type (N2), L1 assay [1]: increased sensitivity

Structure (SMILES): CCNc1nc(Cl)nc(NC(C)C)n1 [atrazine]
- Sensitivity of nhr-8(ok186) mutant animals compared with wild-type (N2), L1 assay [1]: slightly increased sensitivity

Structure (SMILES): CCN(CC)CCCC(C)Nc1ccnc2cc(Cl)ccc12 (centres unmarked) [chloroquine]
- Toxin sensitivity of nhr-8(ok186) homozygotes compared with wild type animals (percentage surviving to the adult stage) ([3]; in vivo): more sensitive
- Toxin sensitivity of nhr-8(ok186); pgp-3(pk18) double mutant animals compared with animals with only a single disrupted gene ([3]; in vivo): more sensitive
- CYP genes whose expression was induced [2]: CYP35A1, CYP35B1, CYP35B2, and CYP35B3

Source: patent US20040213771A1, “Targets and screens for agents useful in controlling parasitic nematodes” (priority 2001, published 2004)
